Test results reported in the supplement of paper PMC10331698.
± gives the standard deviation of the averaged measurements.

Key:
Experiment in all cases: level (log10 ratio to DMSO vehicle control); higher = higher biomarker level / cell amount than vehicle control
Conditions in all cases: in DMSO
[1] = compound: O=C(O)C(F)(F)C(F)(F)C(F)(F)C(=O)O [Hexafluoroglutaric acid]
Protocol: (§1)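 BioMAP Diversity Plus panel of 12 human primary cell co-culture systems (3C, 4H, LPS, SAg, BT, BF4T, BE3C, CASM3C, HDF3CGF, KF3CT, MyoF, Mphg). Compounds were added 1 h before stimulation and left for 24 h (MyoF 48 h; BT 72 h for soluble read-outs or 6 d for IgG). Biomarkers were read by ELISA, cytotoxicity by SRB, PBMC viability and proliferation by Alamar Blue. Each well value was divided by the mean of 8 DMSO control wells on the same plate and log10 transformed; duplicate blinded samples were tested at 4 concentrations.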

[2] = compound: NC(=O)C(F)(F)C(F)(F)C(F)(F)C(F)(F)C(F)(F)C(F)(F)C(F)(F)F [Perfluorooctanamide]
Protocol: as §1

[3] = compound: O=C(O)C(F)(F)C(F)(F)C(F)(F)C(F)(F)C(F)(F)C(F)(F)C(F)(F)C(F)(F)C(F)(F)C(F)(F)C(F)(F)C(F)(F)F [Perfluorotridecanoic acid]
Protocol: as §1

[4] = compound: Cn1cnc([N+](=O)[O-])c1Sc1ncnc2[nH]cnc12 [Azathioprine]
Protocol: as §1

[5] = compound: OCC(F)(F)C(F)(F)C(F)(F)F [1H,1H-Heptafluorobutanol]
Protocol: as §1

[6] = compound: O=C(O)C(F)(F)C(F)(F)C(F)(F)C(F)(F)C(F)(F)C(F)(F)C(F)(F)C(F)(F)C(F)(F)C(F)(F)C(F)(F)C(F)(F)C(F)(F)F [Perfluorotetradecanoic acid]
Protocol: as §1

Test System | level (log10) ([1]; 6700 nM) | level (log10) ([1]; 20000 nM) | level (log10) ([1]; 60000 nM) | level (log10) ([2]; 6700 nM) | level (log10) ([2]; 20000 nM) | level (log10) ([2]; 60000 nM) | level (log10) ([3]; 1500 nM) | level (log10) ([3]; 4400 nM) | level (log10) ([3]; 13000 nM) | level (log10) ([3]; 40000 nM) | level (log10) ([4]; 1400 nM) | level (log10) ([4]; 4200 nM) | level (log10) ([4]; 13000 nM) | level (log10) ([4]; 38000 nM) | level (log10) ([5]; 6700 nM) | level (log10) ([5]; 20000 nM) | level (log10) ([5]; 60000 nM) | level (log10) ([6]; 6700 nM) | level (log10) ([6]; 20000 nM)
BF4T:CXCL8/IL-8 | 0.0125 ± 0.039 | 0.009 ± 0.041 | 0.0345 ± 0.0035 | -0.0035 ± 0.013 | -0.0005 ± 0.026 | -0.0025 ± 0.03 | 0.023 ± 0.031 | 0.005 ± 0.025 | 0.0175 ± 0.019 | 0.028 ± 0.016 | -0.013 ± 0.011 | -0.0325 ± 0.0064 | -0.0455 ± 0.016 | -0.0405 ± 0.016 | 0.019 ± 0.071 | 0.03 ± 0.071 | 0.034 ± 0.089 | 0.0325 ± 0.012 | 0.0275 ± 0.028
BF4T:IL-1alpha | -0.0065 ± 0.015 | -0.0195 ± 0.0035 | -0.0045 ± 0.033 | 0.008 ± 0.0099 | 0.003 ± 0.017 | -0.001 ± 0.024 | 0.016 ± 0.025 | -0.0195 ± 0.011 | -0.009 ± 0.02 | 0.017 ± 0.018 | -0.0055 ± 0.019 | -0.0015 ± 0.0092 | -0.009 ± 0.0057 | 0.0005 ± 0.033 | -0.0125 ± 0.0092 | -0.016 | -0.007 ± 0.0042 | -0.014 ± 0.013 | 0.0235 ± 0.032
BF4T:Keratin 8/18 | -0.006 ± 0.013 | -0.0145 ± 0.015 | 0.0005 ± 0.00071 | -0.023 ± 0.018 | 0.002 ± 0.021 | -0.0075 ± 0.023 | 0.0145 ± 0.043 | -0.0005 ± 0.013 | -0.0105 ± 0.015 | 0.0135 ± 0.023 | 0.0075 ± 0.026 | -0.0055 ± 0.0035 | -0.0115 ± 0.013 | 0.0115 ± 0.026 | -0.036 ± 0.065 | -0.025 ± 0.037 | -0.019 ± 0.037 | -0.0135 ± 0.015 | 0.0195 ± 0.032
BF4T:MMP-1 | 0.0035 ± 0.013 | 0.0215 ± 0.012 | 0.018 ± 0.0099 | -0.0195 ± 0.0078 | 0.0055 ± 0.005 | -0.0385 ± 0.011 | 0 ± 0.025 | -0.005 ± 0.0057 | -0.0015 ± 0.013 | 0.0045 ± 0.00071 | 0 ± 0.014 | -0.001 ± 0.0042 | -0.003 ± 0.0042 | 0.019 ± 0.025 | 0.002 ± 0.013 | 0.0085 ± 0.00071 | -0.002 ± 0.018 | 0.0015 ± 0.00071 | 0.013 ± 0.0028
BF4T:MMP-3 | -0.0045 ± 0.0092 | -0.0125 ± 0.035 | 0.0175 ± 0.0021 | -0.007 ± 0.051 | 0.0125 ± 0.012 | 0.019 ± 0.017 | 0.042 ± 0.054 | -0.0155 ± 0.061 | 0.0115 ± 0.032 | 0.0155 ± 0.012 | 0.01 ± 0.02 | -0.02 ± 0.018 | -0.015 ± 0.0057 | 0.0235 ± 0.052 | 0.004 ± 0.016 | -0.0135 ± 0.012 | 0.0055 ± 0.04 | 0.027 ± 0.04 | 0.0475 ± 0.066
BF4T:MMP-9 | -0.003 ± 0.0014 | -0.0135 ± 0.012 | 0.007 ± 0.0028 | -0.0065 ± 0.011 | 0.0015 ± 0.039 | -0.031 ± 0.048 | 0.01 ± 0.027 | 0.0075 ± 0.043 | -0.0015 ± 0.036 | 0.033 ± 0.078 | 0.0365 ± 0.087 | -0.001 ± 0.04 | 0.004 ± 0.021 | 0.0215 ± 0.023 | -0.03 ± 0.038 | -0.001 ± 0.011 | -0.0145 ± 0.0021 | -0.0165 ± 0.047 | 0 ± 0.035
BF4T:PAI-I | -0.0085 ± 0.022 | -0.002 ± 0.021 | 0.0165 ± 0.011 | -0.009 ± 0.023 | -0.004 ± 0.017 | 0.0065 ± 0.005 | 0.0025 ± 0.028 | 0.005 ± 0.017 | 0.007 ± 0.02 | 0.0235 ± 0.0021 | 0.004 ± 0.017 | -0.001 ± 0.0099 | -0.009 ± 0.0014 | -0.005 ± 0.013 | -0.015 ± 0.0042 | -0.009 | 0.0025 ± 0.028 | 0.014 ± 0.0028 | 0.0245 ± 0.029
BF4T:SRB | -0.005 ± 0.0028 | -0.0065 ± 0.0021 | -0.0015 ± 0.0078 | -0.005 ± 0.0042 | 0.008 ± 0.011 | -0.006 ± 0.0042 | 0.009 ± 0.0042 | -0.0045 ± 0.005 | 0.0025 ± 0.011 | 0.008 ± 0.013 | 0.016 ± 0.014 | -0.0045 ± 0.0092 | -0.0025 ± 0.0021 | -0.005 ± 0.0028 | 0.004 ± 0.017 | -0.0075 ± 0.0078 | 0.009 ± 0.017 | 0.0025 ± 0.0092 | 0.001 ± 0.0071
BF4T:tPA | -0.0195 ± 0.018 | -0.0205 ± 0.028 | -0.0045 ± 0.011 | -0.015 ± 0.034 | -0.006 ± 0.017 | -0.004 ± 0.0042 | 0.025 ± 0.05 | -0.009 ± 0.017 | -0.0045 ± 0.015 | -0.0085 ± 0.018 | 0.005 ± 0.048 | -0.034 ± 0.011 | -0.071 ± 0.023 | -0.0935 ± 0.053 | -0.0205 ± 0.00071 | -0.009 ± 0.013 | 0.0155 ± 0.037 | -0.0015 ± 0.019 | 0.0015 ± 0.049
BF4T:uPA | -0.009 ± 0.016 | -0.0015 ± 0.015 | -0.003 ± 0.0028 | -0.0175 ± 0.015 | -0.004 ± 0.038 | 0.016 ± 0.027 | 0.0185 ± 0.018 | 0.011 ± 0.0042 | 0.0095 ± 0.0021 | 0.0155 ± 0.005 | 0 ± 0.0099 | -0.008 ± 0.0042 | -0.033 ± 0.0028 | -0.026 ± 0.0099 | -0.002 ± 0.0071 | -0.019 ± 0.011 | -0.009 ± 0.011 | 0.0075 ± 0.0078 | 0.017 ± 0.0028
BT:B cell Proliferation | -0.005 ± 0.0042 | -0.0035 ± 0.0078 | 0.011 ± 0.017 | 0.013 ± 0.024 | 0.0055 ± 0.00071 | -0.028 ± 0.054 | -0.0035 ± 0.052 | 0.029 ± 0.016 | 0.01 ± 0.011 | 0.0265 ± 0.035 | -0.0315 ± 0.0064 | -0.0305 ± 0.0092 | -0.0555 ± 0.005 | -0.123 ± 0.026 | 0.0265 ± 0.0078 | -0.0155 ± 0.026 | -0.016 ± 0.075 | -0.0055 ± 0.023 | -0.0035 ± 0.028
BT:PBMC Cytotoxicity | 0.019 ± 0.027 | -0.017 ± 0.0071 | 0.005 ± 0.014 | 0.012 ± 0.024 | 0.0275 ± 0.025 | 0.0635 ± 0.0035 | -0.0035 ± 0.00071 | 0.0245 ± 0.005 | 0.018 ± 0.011 | 0.0165 ± 0.029 | 0.002 ± 0.023 | 0.002 ± 0.018 | -0.054 ± 0.017 | -0.085 ± 0.04 | 0.0095 ± 0.026 | -0.015 ± 0.0099 | 0.0105 ± 0.015 | -0.01 ± 0.0042 | 0.0305 ± 0.059
BT:Secreted IgG | -0.026 ± 0.04 | 0.055 ± 0.013 | 0.019 ± 0.048 | 0.0065 ± 0.0064 | 0.005 ± 0.023 | 0.0215 ± 0.025 | 0.001 ± 0.042 | -0.0025 ± 0.067 | -0.027 ± 0.052 | -0.029 ± 0.02 | -0.866 ± 0.086 | -0.986 ± 0.019 | -0.857 ± 0.054 | -0.672 ± 0.0085 | 0.0305 ± 0.0078 | 0.0055 ± 0.053 | 0.027 ± 0.023 | -0.029 ± 0.072 | 0.001 ± 0.03
BT:sIL-2 | -0.006 ± 0.11 | 0.0205 ± 0.039 | 0.061 ± 0.013 | 0.0115 ± 0.063 | 0.0045 ± 0.084 | -0.176 ± 0.17 | 0.064 | 0.061 ± 0.0042 | 0.0925 ± 0.022 | 0.093 ± 0.14 | -0.017 ± 0.11 | -0.033 ± 0.1 | -0.164 ± 0.037 | -0.629 ± 0.044 | -0.0065 ± 0.077 | -0.0265 ± 0.011 | 0.0365 ± 0.029 | 0.0535 ± 0.011 | 0.0415 ± 0.069
BT:sIL-6 | -0.0105 ± 0.11 | 0.0275 ± 0.021 | -0.0155 ± 0.088 | 0.01 ± 0.023 | 0.0355 ± 0.03 | -0.07 ± 0.025 | 0.033 ± 0.086 | -0.0175 ± 0.026 | 0.011 ± 0.12 | -0.0485 ± 0.066 | -0.0045 ± 0.042 | -0.0485 ± 0.074 | -0.228 ± 0.013 | -0.563 ± 0.0042 | 0.006 ± 0.044 | 0.049 ± 0.0071 | 0.0385 ± 0.043 | -0.0615 ± 0.052 | -0.0545 ± 0.13
